# ChEMBL document CHEMBL3045317, “Synthesis of novel analogues on the -carbon of houttuyfonate and SAR analysis of antibacterial activity with MOPAC” (Med Chem Res, 2009)
# Active and inactive are the calls of the source. The rule behind the calls is not given here.
# Key:
# Format in all cases: functional, organism-based
# Bacillus subtilis = test: Antimicrobial activity against Bacillus subtilis CCRC 10255 after 24 hr by broth microdilution method
# Staphylococcus aureus = test: Antimicrobial activity against Staphylococcus aureus ATCC 25923 after 24 hr by broth microdilution method
# Escherichia coli = test: Antimicrobial activity against Escherichia coli ATCC 25922 after 24 hr by broth microdilution method
# Shigella dysenteriae = test: Antimicrobial activity against Shigella dysenteriae NI-51570 after 24 hr by broth microdilution method
# Pseudomonas aeruginosa = test: Antimicrobial activity against Pseudomonas aeruginosa ATCC 27853 after 24 hr by broth microdilution method
# Salmonella typhi = test: Antimicrobial activity against Salmonella enterica subsp. enterica serovar Typhi ATCC 19430 after 24 hr by broth microdilution method
# Proteus mirabilis = test: Antimicrobial activity against Proteus mirabilis ATCC 49027 after 24 hr by broth microdilution method
Compound,Activity (Bacillus subtilis),Activity (Staphylococcus aureus),Activity (Escherichia coli),Activity (Shigella dysenteriae),Activity (Pseudomonas aeruginosa),Activity (Salmonella typhi),Activity (Proteus mirabilis)
CCCCCCCCCCCC(=O)CC=O,Active,Active,–,–,–,–,–
CCCCCCCCCC(=O)CC=O,Active,Active,–,–,–,–,–
CCCCCCCC(=O)C(C=O)CC (stereo not drawn),Active,Active,inactive,inactive,inactive,inactive,inactive
CCCCCCCC(=O)CC=O,Active,Active,–,–,–,–,–
